The values below come from patent US20200283734A1, “REPROGRAMMING OF A DIFFERENTIATED CELL TO AN UNDIFFERENTIATED CELL USING EXOSOME” (AGENCY FOR SCIENCE, TECHNOLOGY AND RESEARCH, priority 2017, published 2020).

One experiment relates to MCF7 EX-iCSCs. The experiment can be described thus: Drug resistance assay (Alamar Blue cell viability), MCF7. It counts as cell-based. The conditions noted are these: for drug resistance characteristics of EX-iCSCs towards cancer drugs: MCF7 EX-iCSCs (FIG. 17). As to the method: (§1) H7-exosome treated and non-treated A431 and MCF7 cancer cells were seeded at a density of 3×10^3 cells per well in a 96-well plate, in their respective medium. The anticancer drugs, cisplatin, doxorubicin and sunitinib were then added in concentration series ranging from 0.1 to 1000, 0.001 to 10, and 0.1 to 1000 μg/mL, respectively. After time periods of 24, 48 and 72 hours, the cells were subjected to an Alamar Blue assay for cell viability.
(§2) Drug resistance has been associated with stem cell-like traits in cancer cells. The MCF7 and A431 cell lines were treated with exosomes to induce EX-iCSCs, following which they were subjected to viability (Alamar Blue) assays (FIG. 16, FIG. 17).
(Resazurin is reduced to fluorescent resorufin, in cell work by metabolically active cells.)

The test system of another experiment is A431 EX-iCSCs. Description: Drug resistance assay (Alamar Blue cell viability), A431. It counts as cell-based. The following applies: A431 EX-iCSCs (FIG. 16). As to the method: as §1, §2

As to `N.N.[Cl][Pt][Cl]` [cisplatin], the “drug resistance characteristics of EX-iCSCs towards cancer drugs” value with MCF7 EX-iCSCs and with A431 EX-iCSCs was “showed drug resistance characteristics” in each case.
As for `COc1cccc2c1C(=O)c1c(O)c3c(c(O)c1C2=O)C[C@@](O)(C(=O)CO)C[C@@H]3O[C@H]1C[C@H](N)[C@H](O)[C@H](C)O1` [doxorubicin], in the experiment on MCF7 EX-iCSCs (MCF7, H7-exosome treated, all time points (24, 48 and 72 hours)), the “viability of exosome-treated cells under drug compared to non-treated cells” value is “significantly higher viability”. Besides, the “drug resistance characteristics of EX-iCSCs towards cancer drugs” value in the experiment with MCF7 EX-iCSCs and in the experiment with A431 EX-iCSCs was “showed drug resistance characteristics” each time.
